Measurements published in PubChem BioAssay AID192 (DTP/NCI, 2004).
“And” between values parts separate entries of the source, which are not always exact repeats. Identical values can stand only once. Inconclusive results and toxic doses are left out.

System: BDF1 mice, B16 melanoma ip, median survival T/C
Test: NCI In Vivo Anticancer Drug Screen. Data for tumor model B16 Melanoma (intraperitoneal) in B6D2F1 (BDF1) mice
Settings: endpoint: median survival time, higher = longer survival
Method in brief: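 Survival or tumor size is measured after treatment of tumor-bearing mice and normalised to the vehicle-treated control group.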

[1] = dose: 12.5 mg/kg/injection, schedule: Q01DX009 (ip), vehicle: Klucel (hydroxypropylcellulose) (HPC)
[2] = dose: 25.0 mg/kg/injection, schedule: Q01DX009 (ip), vehicle: Klucel (hydroxypropylcellulose) (HPC)
[3] = dose: 50.0 mg/kg/injection, schedule: Q01DX009 (ip), vehicle: Klucel (hydroxypropylcellulose) (HPC)
[4] = dose: 100.0 mg/kg/injection, schedule: Q01DX009 (ip), vehicle: Klucel (hydroxypropylcellulose) (HPC)

For `OC(CC(O)(C(F)(F)F)C(F)(F)F)c1cccc(Cl)c1` (configuration not stated), the T/C (dose: 50.0 mg/kg/injection, schedule: Q04DX003 (ip), vehicle: gum acacia) was 105 % of control, the T/C (dose: 100.0 mg/kg/injection, schedule: Q04DX003 (ip), vehicle: gum acacia) was 90 % of control and the T/C (dose: 200.0 mg/kg/injection, schedule: Q04DX003 (ip), vehicle: gum acacia) was 90 % of control.
For `O=C1c2ccccc2C(=O)c2c(NCCCCCO)ccc(NCCCCCO)c21`, the T/C (dose: 8.0 mg/kg/injection, schedule: Q01DX009 (ip), vehicle: Klucel (hydroxypropylcellulose) (HPC)) was 99 % of control, the T/C (dose: 16.0 mg/kg/injection, schedule: Q01DX009 (ip), vehicle: Klucel (hydroxypropylcellulose) (HPC)) was 95 % of control and the T/C (dose: 32.0 mg/kg/injection, schedule: Q01DX009 (ip), vehicle: Klucel (hydroxypropylcellulose) (HPC)) was 91 % of control.
In the case of `CN(C)N=Nc1ccnc2c(Br)cccc12`, the T/C (dose: 14.4 mg/kg/injection, schedule: Q01DX009 (ip), vehicle: DMSO) is reported as 90 % of control, the T/C (dose: 24.0 mg/kg/injection, schedule: Q01DX009 (ip), vehicle: DMSO) is reported as 97 % of control and the T/C (dose: 40.0 mg/kg/injection, schedule: Q01DX009 (ip), vehicle: DMSO) is reported as 90 % of control. For the same compound, the T/C (dose: 66.7 mg/kg/injection, schedule: Q01DX009 (ip), vehicle: DMSO) was 101 % of control.
With `CC(C)(C)OC(=O)NC(N)=NCCCC(NC(=O)OC(C)(C)C)C(=O)O` (configuration not stated) the T/C (dose: 50.0 mg/kg/injection, schedule: Q01DX009 (ip), vehicle: saline with Tween-80) was 101 % of control, the T/C (dose: 100.0 mg/kg/injection, schedule: Q01DX009 (ip), vehicle: saline with Tween-80) was 88 % of control and the T/C (dose: 200.0 mg/kg/injection, schedule: Q01DX009 (ip), vehicle: saline with Tween-80) was 87 % of control.
For `NC(=S)Nc1cccc(Cl)c1`, the T/C [1] was 106 % of control, the T/C [2] was 102 % of control and the T/C [3] was 100 % of control.
For `CCc1ccc(C(C)(C)C)cc1`, the T/C (dose: 25.0 mg/kg/injection, schedule: Q04DX003 (ip), vehicle: Klucel (hydroxypropylcellulose) (HPC)) was 103 % of control, the T/C (dose: 50.0 mg/kg/injection, schedule: Q04DX003 (ip), vehicle: Klucel (hydroxypropylcellulose) (HPC)) was 93 % of control and the T/C (dose: 100.0 mg/kg/injection, schedule: Q04DX003 (ip), vehicle: Klucel (hydroxypropylcellulose) (HPC)) was 101 % of control. The T/C (dose: 200.0 mg/kg/injection, schedule: Q04DX003 (ip), vehicle: Klucel (hydroxypropylcellulose) (HPC)) was 100 % of control.
In the case of `COC(=O)[C@@H]1[C@H](O)[C@H](C)[C@H](O)[C@@](C)(O)/C=C\C=C(C)C(=O)Nc2c(C)c(OC(C)=O)c3c(c2O)C(=O)C(C)=C2OCOC(=C23)C(C)=C[C@@](C)(O)[C@H](O)[C@@H](C)[C@H]1OC(C)=O`, the T/C (dose: 6.25 mg/kg/injection, schedule: Q01DX009 (ip), vehicle: Klucel (hydroxypropylcellulose) (HPC)) is reported as 106 % of control, the T/C [1] is reported as 99 % of control and the T/C [2] is reported as 90 % of control. The T/C [3] was 91 % of control, the T/C (dose: 75.0 mg/kg/injection, schedule: Q01DX009 (ip), vehicle: saline with Tween-80) was 97 % of control and the T/C [4] was 95 % of control. The T/C (dose: 150.0 mg/kg/injection, schedule: Q01DX009 (ip), vehicle: saline with Tween-80) was 91 % of control and the T/C (dose: 300.0 mg/kg/injection, schedule: Q01DX009 (ip), vehicle: saline with Tween-80) was 87 % of control.
For `CCC1(O)CC2CN(CCc3c([nH]c4ccccc34)C(C(=O)OC)(c3cc4c(cc3OC)N(C)C3C(O)(C(=O)NCCSSCCNC(=O)C5(O)C(O)C6(CC)C=CCN7CCC8(c9cc(C%10(C(=O)OC)CC%11CN(CCc%12c%10[nH]c%10ccccc%12%10)CC(O)(CC)C%11)c(OC)cc9N(C)C58)C76)C(O)C5(CC)C=CCN6CCC43C65)C2)C1` (configuration not stated), the T/C (dose: 0.13 mg/kg/injection, schedule: Q04DX003 (ip), vehicle: saline) was 122 % of control, the T/C (dose: 0.64 mg/kg/injection, schedule: Q01DX009 (ip), vehicle: saline) was 184 % of control and the T/C (dose: 1.0 mg/kg/injection, schedule: Q04DX003 (ip), vehicle: saline) was 151 % of control. For the same compound, the T/C (dose: 1.08 mg/kg/injection, schedule: Q01DX009 (ip), vehicle: saline) was 189 % of control, the T/C (dose: 648.0 micrograms/kg/injection, schedule: Q04DX003 (ip), vehicle: saline) was 158 % of control and 181 % of control and the T/C (dose: 1080.0 micrograms/kg/injection, schedule: Q04DX003 (ip), vehicle: saline) was 183 % of control and 203 % of control. For the same compound, the T/C (dose: 1800.0 micrograms/kg/injection, schedule: Q04DX003 (ip), vehicle: saline) was 184 % of control and 203 % of control.
`CC(C)N(C(=O)c1ccccc1Cl)c1ccccc1` was tested, and the T/C [2] was 93 % of control and the T/C [4] was 106 % of control.
